Article PMC12334614, “Chidamide and cytarabine synergistically treat acute myeloid leukemia: inhibiting ribosome biogenesis via the MYC-RRP9 pathway” (Cell Death & Disease, 2025)
pKd: −log10 of the molar value.

Tests used:
c-MYC = target: T1, c-MYC (Homo sapiens, UniProt P01106); assay: SPR (Biacore X100, steady-state affinity); type: binding
T1 construct: recombinant c-MYC protein (RayBiotech) immobilized on CM5 chip

MYC = target: T2, MYC (Homo sapiens, UniProt P01106, A416G/K413A/P406A/V409A); assay: SPR (Biacore X100, steady-state affinity); type: binding
T2 construct: recombinant MYC protein carrying the predicted substitutions (MedChemExpress HY-P7S1056)
T2 sequence (P01106 16-454 P406A/V409A/K413A/A416G): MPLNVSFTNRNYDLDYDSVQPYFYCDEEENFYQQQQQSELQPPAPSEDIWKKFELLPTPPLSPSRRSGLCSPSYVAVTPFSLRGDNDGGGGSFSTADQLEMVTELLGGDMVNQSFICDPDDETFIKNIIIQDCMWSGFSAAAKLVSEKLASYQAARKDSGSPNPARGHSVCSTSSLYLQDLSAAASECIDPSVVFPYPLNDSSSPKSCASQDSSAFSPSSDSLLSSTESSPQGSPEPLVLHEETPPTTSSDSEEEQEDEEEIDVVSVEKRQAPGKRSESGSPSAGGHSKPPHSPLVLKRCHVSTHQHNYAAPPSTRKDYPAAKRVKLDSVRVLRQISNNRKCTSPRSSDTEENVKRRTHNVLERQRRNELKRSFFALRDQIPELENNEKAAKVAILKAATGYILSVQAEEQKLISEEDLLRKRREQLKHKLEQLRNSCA

T1 sequence (P01106 16-454): as the sequence (P01106 16-454 P406A/V409A/K413A/A416G) above, with A391P, A394V, A398K, G401A counted along it

pKd (c-MYC): 6.10
pKd (MYC): 5.51
Structure (SMILES): Nc1cc(F)ccc1NC(=O)c1ccc(CNC(=O)/C=C/c2cccnc2)cc1 [chidamide]
